# Reference: patent US20050118572A1, “Single cell assessment of viral infection/replication” (The Board of Trustees of the Leland Stanford Junior …, priority 2002, published 2005)
# Tests used:
# [1] = tested on: HIV-1 infected CD4 T cells; test: Killing / apoptosis (annexin-V, intracellular p24, EMA) of HIV-1 infected CD4 T cells by FACS; assay type: cell-based, human
# Procedure: (§1) PBMC were infected with a high HIV-1 dose, incubated for three days with indicated concentrations of Gd-Tex, and assessed for annexin-V by flow cytometry. Live CD3 cells were gated and apoptotic percentages quantified for CD4 and CD8 cells.
# PBMC were infected with high and low HIV-1 doses and treated for six days with the indicated concentrations and processed as indicated above.
# Live CD4 T cells were gated and analyzed for annexin-V and p24 stain.
# IL-2 activated, HIV-infected cultures were treated with Gd-Tex at the indicated concentrations for 6 days and processed for flow cytometry. […] Histograms are representative of 4 independent experiments.
# [2] = tested on: HIV-1; conditions: HIV-1 infected PBMC, TCID50=300/1×10^6 cells, FIG. 5
# [3] = tested on: glutathione (GSH); test: Intracellular glutathione levels by monochlorobimane fluorescence (flow cytometry); assay type: cell-based, human
# Procedure: PBMC were isolated and HIV-1 infected as described in materials and methods. Intracellular glutathione levels were assessed using monochlorobimane fluorescence and samples were analyzed by flow cytometry.
# [4] = tested on: uninfected CD4 T cells and CD8 T cells; assay type: cell-based, human
# Procedure: as §1
# At Gd-Tex doses below 250 µM, GSH depletion and Gd-Tex toxicity in CD8 T cells and uninfected CD4 T cells was minimal. […] These findings are shown in FIG. 4-5, in which data are shown for subset-defining cell surface marker expression, HIV infection, intracellular GSH and Gd-Tex toxicity (induction of apoptosis and the breaking of the cell permeability barrier), all measured simultaneously for individual cells by 11-color, 13-parameter Hi-D FACS.
smiles,measurement,setting,value
"CC(=O)[O-].CC(=O)[O-].CCc1c(CC)c2cc3nc(cnc4cc(OCCOCCOCCOC)c(OCCOCCOCCOC)cc4ncc4nc(cc1[n-]2)C(CCCO)=C4C)C(C)=C3CCCO.O.[Gd+3] [Gd-Tex, motexafin gadolinium]",Killing of HIV-infected (p24+) CD4 T cells,[1]; 3 uM Gd-Tex,selectively killed
same,p24 cells among live CD4 T cells infected with HIV-1,"[1]; 50 μM Gd-Tex, 6 days",decrease of p24 cells
same,Apoptosis induction in HIV-1 infected CD4 T cells,[1]; Gd-Tex concentrations not cytotoxic to uninfected cells,selectively induced apoptosis
same,"HIV-1 production (RT activity, p24 levels)",[2],inhibition of HIV-1 production
same,GSH depletion in CD8 T cells and uninfected CD4 T cells,[3]; Gd-Tex doses below 250 µM,minimal
same,GSH depletion in T cells in PBMC,[3]; high doses of Gd-Tex,depleted GSH
same,Gd-Tex toxicity in CD8 T cells and uninfected CD4 T cells,[4],minimal
same,Killing of uninfected CD4 T cells and CD8 T cells,[4],did not kill
